Reference: patent US20230101403A1, “METHOD OF TREATING OR AMELIORATING CANCERS DRIVEN BY RECEPTOR TYROSINE KINASE FUSION ONCOGENES, AND COMPOSITIONS FOR THE SAME” (THE TRUSTEES OF THE UNIVERSITY OF PENNSYLVANIA, priority 2021, published 2023)

What was measured:
H3122 cells = assay: caspase-3 activity reporter (Nucview) in H3122; format: cell-based; details: for killing over untreated cells, single agent: 24 hr
Source text: (§1) FIG. 6C depicts the quantification of death in STE-1 cells following 24 hrs of inhibitor treatment. FIG. 6D depicts the number of Erk pulses in cells that died (“D”) and cells that lived (“L”) during 24 hrs of inhibitor treatment. FIG. 6E depicts the percentage of caspase-3+ STE-1 and H3122 cells following 24 hrs of inhibitor treatment.

STE-1 cells [1] = assay: caspase-3 activity reporter (Nucview) in STE-1; format: cell-based; details: for killing over untreated cells, single agent: 24 hr
Method: as §1
Percent of Caspase-3 positive cells assessed using NucView 488 afterfive days of treatment with the indicated inhibitors: Alecitinib 1 μM, Erlotinib 1 μM, Marimastat 10 μM.

[2] = system: Erk activity, STE-1 cells; assay: live cell imaging of Erk kinase translocation reporter (ErkKTR); format: cell-based; details: for effect on ErkKTR: Erk activity and reactivation pulses: crizotinib 1 μM, erlotinib 1 μM, marimastat 10 μM
Method: (§2) Error bars represent 95% confidence intervals. […] FIG. 4I depicts the comparison of EGR1 expression after 6 hr of inhibitor treatment. […] FIG. 5B is the schematic of spatial analysis of Erk signaling in relation to dying cells. Cells within a 32 μm radius of a dying cell were considered neighbors of the dying cell, whereas all other cells were non-neighbors. Neighbors/non-neighbors were identified and tracked for 50 min before the death event, and Erk actvity in these cells was quantified. FIG. 5C depicts the quantification of Erk activity pulses in neighbors (“N”) or non-neighbors (“R”) of each cell-death event in the indicated conditions.
To further understand Erk reactivation, the present study observed Erk activity using live cell imaging of the Erk kinase translocation reporter (ErkKTR) in STE-1 cells (FIG. 4A). ErkKTR is a fluorescence reporter whose localization corresponds with Erk activity: the nuclear localization of ErkKTR indicates low activity of Erk while the cytoplasmic localization indicates high activity of Erk.

[3] = system: ppErk, STE-1 cells expressing optoFGFR; assay: functional profiling: optoFGFR blue light stimulation, single-cell ppErk immunofluorescence; format: cell-based; details: STE-1 optoFGFR
Source text: FIG. 1A illustrates that EML4-ALK+ cancer cells treated with ALK specific tyrosine kinase inhibitor (TKI) often result in a population of persistent/tolerant cells that later develop into resistant colonies. […] FIG. 1C, left panel, illustrates that transmembrane RTK and EML4-ALK protein granules both signal through the same adapter proteins and downstream pathways like Ras/Erk. FIG. 1C, right panel, illustrates the functional profiling method used in determining the extent to which EML4-ALK expression or its inhibition alter signal transmission in cancer cells. FIG. 1D illustrates that optoFGFR allows for blue light stimulation of RTK (optoFGFR) signal transduction. […] FIG. 1F depicts the normalized ppErk fold-change in response to 5 min of blue light stimulation. Blue light intensity ranged from 2% to 60% of maximum (1.45 W/cm^2). Datapoints show mean single-cell ppErk intensity from three replicates.
A method called functional profiling that allows the measurement of how oncogenes and targeted therapies can alter signal transmission was developed. In functional profiling, light-activated ‘optogenetic’ signaling stimuli are apply at specific nodes of a signaling pathway and downstream signals, transcription, and cell fate as a function of oncogene or drug status are observe.
To determine whether EML4-ALK could alter RTK signal transmission properties, a light-sensitive fibroblast growth factor receptor (optoFGFR) was expressed in the STE-1 cancer cell line, which is driven by the EML4-ALK(V1) oncogene. The present study observed signal transmission by applying blue light stimuli and measuring single-cell phospho-Erk levels single-cell immunofluorescence (FIG. 1D). In STE-1 cells, optoFGFR induced only mild double-phosphorylated Erk (ppErk) signal increase above the high basal ppErk levels attributed to active EML4-ALK (FIG. 1E, top). […] Signal dynamic range increased due to lowering of tonic Erk activity from ALK, as well as from an increase in the maximum signal achievable relative to untreated cells. […]

ppErk, H3122 cells = assay: EGF-induced ppErk induction in H3122 cells; format: cell-based; details: 100 ng/mL EGF, pre-treatment 1 μM
Source text: Data points represent mean single cell ppErk intensity of three replicates.
(§3) To determine whether such negative regulation could be observed in the context of native epidermal growth factor receptor (EGFR) signaling, the present study measured ppErk induction upon addition of epidermal growth factor (EGF) in STE-1 and H3122 cells, two NSCLC cell lines driven by EML4-ALK(V1) (FIG. 2A).
(§4) To determine whether the mechanism was predominantly transcriptional or post-translational, the required duration of ALKi pre-incubation to observe an increase in dynamic range was examined. both STE-1 and H3122 cells were preincubated with varying durations of ALK inhibition, and ppErk levels in response to 15 min of EGF stimulation was analyzed.

EGR1, STE-1 cells = assay: EGR1 expression in individual cells after drug treatment; format: cell-based
Method: as §2

ppErk, STE-1 cells = assay: EGF-induced ppErk induction in STE-1 cells; details: 100 ng/mL EGF, pre-treatment 1 μM
Method: Data points represent mean single cell ppErk intensity of three replicates. FIG. 2C depicts the quantification of dynamic range of ppErk induction from experiment in 2C performed over a range of EGF concentrations. […] FIG. 2E depicts the ppErk immunofluoresence intensity response to 50 ng/mL EGF stimulation.
as §3, §4

[4] = system: Erk activity, STE-1 cells
Method: as §2
The present study next sought to determine the source of the paracrine signals. […] Signal activation near dying cells was quantified by first identifying the time and location of each cell death event. All cells that were within a 100-pixel radius (˜32 μm, or about a 2-cell radius) of the dying cell for the 50 minutes preceding death were then identified. The present study refers to these as the “neighbors” of the dying cell (FIG. 5B). The present study then counted Erk pulses in the neighbors of a death event and compared to Erk pulses from a randomly selected subset of non-neighbors over that same time interval.

[5] = system: ppErk, STE-1 and H3122 cancer cells; assay: single-cell ppErk levels as a function of treatment duration; format: cell-based; details: serum-starved
Source text: The present study sought to understand whether relief of EGFR inhibition by EML4-ALK might lead to Erk reactivation in STE-1 and H3122 cancer cells. […] The present study thus further examined Erk reactivation under ALK inhibition combined with marimastat, an inhibitor for matrix metalloproteases that are required for shedding EGF family ligands prior to paracrine signaling.

STE-1 cells [6] = assay: cell death in cells imaged over 24 hrs; format: cell-based

| SMILES | killing over untreated cells, single agent (H3122 cells) | killing over untreated cells, single agent (STE-1 cells [1]) | effect on ErkKTR: Erk activity and reactivation pulses [2] | dynamic range of signal induction (ppErk) ([3]; blue light, pre-treatment 1 μM) [fold] | light stimulation at which increase of dynamic range could be observed ([3]; 1 μM) | dynamic range plateau (induction) at the highest light levels ([3]; 1 μM, highest levels of light stimulation) [fold] | ppErk dynamic range in response to EGF (ppErk, H3122 cells) | caspase-3-positive cell fraction (H3122 cells; first 24 hr of treatment) [%] | time EGR1 levels remained low (EGR1, STE-1 cells) | EGR1 expression (EGR1-high population) (EGR1, STE-1 cells; crizotinib 1 μM, erlotinib 1 μM) | caspase-3-positive cell fraction (STE-1 cells [1]; first 24 hr of treatment) [%] | ppErk dynamic range in response to EGF (ppErk, STE-1 cells) | ErkKTR localization upon treatment ([2]; 1 μM) | median Erk pulses per cell, neighbors of a death ([4]; 50 minutes preceding death, within ~32 μm) [pulses per cell] | proportion of neighbor cells with at least 1 pulse preceding a death event ([4]; neighbors) [%] | proportion of non-neighbor cells with at least 1 pulse preceding a death event ([4]; non-neighbors) [%] | time to reappearance of ERK-hi cells [5] [h] | time within which mean Erk levels decreased dramatically [5] [min] | Erk pulses in surviving cells compared to cells that died (STE-1 cells [6]; 24 hrs) | cell death, % of cells analyzed (STE-1 cells [6]; imaged over 24 hrs) [%] |
| --- | --- | --- | --- | --- | --- | --- | --- | --- | --- | --- | --- | --- | --- | --- | --- | --- | --- | --- | --- | --- |
| CNC(=O)[C@@H](NC(=O)[C@H](CC(C)C)[C@H](O)C(=O)NO)C(C)(C)C [marimastat] | Neither erlotinib or marimastat treatment alone showed enhanced killing over untreated cells | Neither erlotinib or marimastat treatment alone showed enhanced killing over untreated cells | no obvious effect on ErkKTR |  |  |  |  |  |  |  |  |  |  |  |  |  |  |  |  |  |
| C[C@@H](Oc1cc(-c2cnn(C3CCNCC3)c2)cnc1N)c1c(Cl)ccc(F)c1Cl [crizotinib] |  |  |  | ~18 | ≤ 5 % maximal light stimulation | ~25 | dramatic increase in ppErk dynamic range | 5 | at least 2 hrs | a distinct peak of EGR1-high cells appeared and grew at 4 and 6 hrs after drug treatment | 25 | dramatic increase in ppErk dynamic range | induced rapid nuclear translocation of ErkKTR in all cells | 0.23 | 60 | 20 | ≤ 1 | ≤ 10 | surviving cells showed an increased number of Erk pulses compared to cells that died | ~40 |
| C#Cc1cccc(Nc2ncnc3cc(OCCOC)c(OCCOC)cc23)c1 [erlotinib] | Neither erlotinib or marimastat treatment alone showed enhanced killing over untreated cells | Neither erlotinib or marimastat treatment alone showed enhanced killing over untreated cells | no obvious effect on ErkKTR |  |  |  |  |  |  |  |  |  |  |  |  |  |  |  |  |  |
